Data published in patent publication US9181183B2, “Prostaglandin D synthase inhibitory piperidine compounds” (Taiho Pharmaceutical Co., Ltd., priority 2010, dated 2015).

Target: human H-PGDS (Homo sapiens, UniProt O60760)
Experiment: Hematopoietic prostaglandin D synthase (H-PGDS) inhibiting action, [14C]PGH2 to PGD2 conversion, TLC radioassay
Type: biochemical
Conditions: compound 0.1 μM, inhibition rate relative to solvent control group, [14C] prostaglandin H2 10 μM, 25° C.; for inhibition at 0.1 µM: read-out: H-PGDS inh. (% at 0.1 μM)
Procedure: The test was carried out according to the method of Urade, Y. et al. (J. Biol. Chem., 262, 3820-3825, (1987)). More specifically, a reaction mixture (49 μL) containing 100 mM Tris-HCl (pH 8.0), 1 mM reduced form glutathione, 0.1 mg/mL γ-globulin, human H-PGDS (q.s.), and a compound (0.1 μM) was preincubated at 25° C. for 5 minutes. A DMSO solution (final concentration: 1%) was added to the solvent control group. Subsequently, 1 μL of [^14C] prostaglandin H2 (final concentration: 10 μM) was added to start the reaction. One minute after the start of the reaction, 250 μL of a reaction stopper solution (diethylether/methanol/1M citric acid (30/4/1)) cooled with ice was added to stop the reaction. After the reaction was stopped, 50 μL of the upper layer portion (organic solvent phase) was applied to a TLC plate and developed at −20° C. for 45 minutes (developing solvent: diethylether/methanol/acetic acid (90/2/1)). After the TLC plate was dried and exposed to an imaging plate for 1 to 24 hours, the radioactivity corresponding to prostaglandin D2 (PGD2) was analyzed using an image analyzer (produced by Fujifilm Corporation). The area (%) occupied by the PGD2 band per lane and the inhibition rate (%) of each Example compound at 0.1 μM relative to the control group in each experiment were calculated.

Chain of human H-PGDS (O60760 whole entry): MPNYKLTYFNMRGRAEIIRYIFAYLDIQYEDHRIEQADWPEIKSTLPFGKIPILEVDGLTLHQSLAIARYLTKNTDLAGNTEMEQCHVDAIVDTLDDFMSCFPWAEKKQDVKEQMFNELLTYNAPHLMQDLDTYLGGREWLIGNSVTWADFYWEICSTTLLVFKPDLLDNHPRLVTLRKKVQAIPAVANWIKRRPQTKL

Question: How did the inhibition at 0.1 µM turn out when `O=C(NC1CCN(CC(F)F)CC1)N1CCC(=Cc2cc(F)ccc2F)CC1` [Example 44, 4-(2,5-difluorobenzylidene)-N-(1-(2,2-difluoroethyl)piperidin-4-yl)piperidine-1-carboxamide] was run?
Answer: Its inhibition at 0.1 µM is 81%.

Question: Which inhibition at 0.1 µM does the source give for `O=C(Nc1ccccn1)N1CCC(NC(=O)N2CCC(=Cc3cc(F)ccc3F)CC2)CC1` [Example 64, 4-(2,5-difluorobenzylidene)-N-(1-(pyridin-2-ylcarbamoyl)piperidin-4-yl)piperidine-1-carboxamide] here?
Answer: Its inhibition at 0.1 µM is 51%.

Question: With `O=C(Nc1nccs1)c1ccc(-c2cnc(NC(=O)N3CCC(=Cc4ccccn4)CC3)s2)cc1` [Example 22, 4-(pyridin-2-ylmethylene)-N-(5-(4-(thiazol-2-ylcarbamoyl)phenyl)thiazol-2-yl)piperidine-1-carboxamide] as the compound, how does the inhibition at 0.1 µM read?
Answer: Its inhibition at 0.1 µM is 66.5%.

Question: Which inhibition at 0.1 µM does the source give for `CN(C)C(=O)c1ccc(-c2ccc(NC(=O)N3CCC(=Cc4ccccn4)CC3)cn2)cc1` [Example 31, N-(6-(4-(dimethylcarbamoyl)phenyl)pyridin-3-yl)-4-(pyridin-2-ylmethylene)piperidine-1-carboxamide] here?
Answer: Its inhibition at 0.1 µM is 52.9%.

Question: How did the inhibition at 0.1 µM turn out when `O=C(NC1CCN(C(=O)C2CCCCC2)CC1)N1CCC(=Cc2cc(F)ccc2F)CC1` [Example 49, N-(1-(cyclohexanecarbonyl)piperidin-4-yl)-4-(2,5-difluorobenzylidene)piperidine-1-carboxamide] was run?
Answer: The inhibition at 0.1 µM was 39.6%.

Question: With “Phenyl 4-(4-(2,5-difluorobenzylidene)piperidine-1-carboxamido) piperidine-1-carboxylate [Example 39]” as the compound, how does the “H-PGDS inh. (% at 0.1 μM)” value read?
Answer: Its value is 62.9%.

Question: Which “H-PGDS inh. (% at 0.1 μM)” value does the source give for “N-(5-(morpholin-1-yl-carbonyl)thiazol-2-yl)-4-(pyridin-2-ylmethylene)piperidine-1-carboxamide [Example 13]” here?
Answer: The value was 48.3%.

Question: Which inhibition at 0.1 µM does the source give for `O=C(O)c1ccc(-c2ccc(NC(=O)N3CCC(=Cc4ccccn4)CC3)cn2)cc1` [Example 28, 4-(5-(4-(pyridin-2-ylmethylene)piperidine-1-carboxamido)pyridin-2-yl)benzoic acid] here?
Answer: The inhibition at 0.1 µM was 53.2%.

Question: Which inhibition at 0.1 µM does the source give for `O=C(NS(=O)(=O)c1ccccc1)c1ccc(-c2cnc(NC(=O)N3CCC(=Cc4ccccn4)CC3)s2)cc1` [Example 24, N-(5-(4-(phenylsulfonylcarbamoyl)phenyl)thiazol-2-yl)-4-(pyridin-2-ylmethylene)piperidine-1-carboxamide] here?
Answer: Its inhibition at 0.1 µM is 68.2%.

Question: `O=C(NC1CCN(C(=O)N2CCCCC2)CC1)N1CCC(=Cc2cc(F)ccc2F)CC1` [Example 57, 4-(2,5-difluorobenzylidene)-N-(1-(piperidine-1-carbonyl)piperidin-4-yl)piperidine-1-carboxamide] was tested. Which inhibition at 0.1 µM did it give?
Answer: Its inhibition at 0.1 µM is 62.3%.

Question: How did the inhibition at 0.1 µM turn out when `O=C(Nc1ccccc1)N1CCC(NC(=O)N2CCC(=Cc3cc(F)ccc3F)CC2)CC1` [Example 56, 4-(2,5-difluorobenzylidene)-N-(1-(phenylcarbamoyl)piperidin-4-yl)piperidine-1-carboxamide] was run?
Answer: The inhibition at 0.1 µM was 59.3%.

Question: With `O=C(Nc1ncc(Cn2cncn2)s1)N1CCC(=Cc2cc(F)ccc2F)CC1` [Example 81, N-(5-((1H-1,2,4-triazol-1-yl)methyl)thiazol-2-yl)-4-(2,5-difluorobenzylidene)piperidine-1-carboxamide] as the compound, how does the inhibition at 0.1 µM read?
Answer: Its inhibition at 0.1 µM is 72.8%.

Question: Which inhibition at 0.1 µM does the source give for `O=C(NC1CC1)c1ccc(-c2ccc(NC(=O)N3CCC(=Cc4ccccn4)CC3)cn2)cc1` [Example 30, N-(6-(4-(cyclopropylcarbamoyl)phenyl)pyridin-3-yl)-4-(pyridin-2-ylmethylene)piperidine-1-carboxamide] here?
Answer: Its inhibition at 0.1 µM is 67.1%.

Question: With `O=C(Nc1ccc(Nc2ccccc2)cc1)N1CCC(=Cc2cc(F)ccc2F)CC1` [Example 72, 4-(2,5-difluorobenzylidene)-N-(4-(phenylamino)phenyl)piperidine-1-carboxamide] as the compound, how does the inhibition at 0.1 µM read?
Answer: Its inhibition at 0.1 µM is 68.7%.

Question: For `O=C(Nc1ncc(CN2CCOCC2)s1)N1CCC(=Cc2cc(F)ccc2F)CC1` [Example 84, 4-(2,5-difluorobenzylidene)-N-(5-(morpholinomethyl)thiazol-2-yl)piperidine-1-carboxamide], which inhibition at 0.1 µM is on record?
Answer: Its inhibition at 0.1 µM is 78.5%.

Question: `CS(=O)(=O)NC(=O)c1ccc(-c2cnc(NC(=O)N3CCC(=Cc4ccccn4)CC3)s2)cc1` [Example 23, N-(5-(4-(methylsulfonylcarbamoyl)phenyl)thiazol-2-yl)-4-(pyridin-2-ylmethylene)piperidine-1-carboxamide] was tested. Which inhibition at 0.1 µM did it give?
Answer: Its inhibition at 0.1 µM is 65.9%.

Question: Which inhibition at 0.1 µM does the source give for `O=C(O)c1ccc(-c2cnc(NC(=O)N3CCC(=Cc4ccccn4)CC3)s2)nc1` [Example 27, 6-(2-(4-(pyridin-2-ylmethylene)piperidine-1-carboxamido)thiazol-5-yl)nicotinic acid] here?
Answer: Its inhibition at 0.1 µM is 50.2%.

Question: How did the inhibition at 0.1 µM turn out when `CN(C)C(=O)N1CCC(NC(=O)N2CCC(=Cc3cc(F)ccc3F)CC2)CC1` [Example 52, 4-(4-(2,5-difluorobenzylidene)piperidine-1-carboxamido)-N,N-dimethylpiperidine-1-carboxamide] was run?
Answer: The inhibition at 0.1 µM was 74.6%.

Question: Which “H-PGDS inh. (% at 0.1 μM)” value does the source give for “N-(6-(1H-1,2,3-triazol-1-ylmethyl)acetamide)benzo[d]thiazol-2-yl)-4-(pyridin-2-ylmethylene)-piperidine-1-carboxamide [Example 12]” here?
Answer: Its value is 52.5%.

Question: How did the inhibition at 0.1 µM turn out when `O=C(Nc1ccc(Oc2ncccn2)cc1)N1CCC(=Cc2cc(F)ccc2F)CC1` [Example 70, 4-(2,5-difluorobenzylidene)-N-(4-(pyrimidin-2-yloxy)phenyl)piperidine-1-carboxamide] was run?
Answer: Its inhibition at 0.1 µM is 84.2%.

Question: Which inhibition at 0.1 µM does the source give for `CC(C)C(=O)N1CCC(NC(=O)N2CCC(=Cc3cc(F)ccc3F)CC2)CC1` [Example 48, 4-(2,5-difluorobenzylidene)-N-(1-isobutyrylpiperidin-4-yl)piperidine-1-carboxamide] here?
Answer: The inhibition at 0.1 µM was 65.7%.

Question: `CC(C)C(=O)Nc1ccc(NC(=O)N2CCC(=Cc3cc(F)ccc3F)CC2)cc1` [Example 77, 4-(2,5-difluorobenzylidene)-N-(4-isobutyramidophenyl)piperidine-1-carboxamide] was tested. Which inhibition at 0.1 µM did it give?
Answer: The inhibition at 0.1 µM was 68.1%.

Question: With `O=C(O)c1ccc(-c2cnc(NC(=O)N3CCC(=Cc4ccccn4)CC3)s2)cc1` [Example 20, 4-(2-(4-(pyridin-2-ylmethylene)piperidine-1-carboxamido)thiazol-5-yl)benzoic acid] as the compound, how does the inhibition at 0.1 µM read?
Answer: Its inhibition at 0.1 µM is 61.4%.

Question: `O=C(NC1CCN(C(=O)C2CCCC2)CC1)N1CCC(=Cc2cc(F)ccc2F)CC1` [Example 53, N-(1-(cyclopentanecarbonyl)piperidin-4-yl)-4-(2,5-difluorobenzylidene)piperidine-1-carboxamide] was tested. Which inhibition at 0.1 µM did it give?
Answer: Its inhibition at 0.1 µM is 69%.

Question: Which inhibition at 0.1 µM does the source give for `CS(=O)(=O)NC(=O)c1ccc(-c2ccc(NC(=O)N3CCC(=Cc4ccccn4)CC3)cn2)cc1` [Example 32, N-(6-(4-(methylsulfonylcarbamoyl)phenyl)pyridin-3-yl)-4-(pyridin-2-ylmethylene)piperidine-1-carboxamide] here?
Answer: The inhibition at 0.1 µM was 76.1%.

Question: `O=C(Nc1ccon1)N1CCC(NC(=O)N2CCC(=Cc3cc(F)ccc3F)CC2)CC1` [Example 67, 4-(2,5-difluorobenzylidene)-N-(1-(isoxazol-3-ylcarbamoyl)piperidin-4-yl)piperidine-1-carboxamide] was tested. Which inhibition at 0.1 µM did it give?
Answer: Its inhibition at 0.1 µM is 51.7%.

Question: Which inhibition at 0.1 µM does the source give for `COC(=O)c1ccccc1CNC(=O)N1CCC(=Cc2cc(F)ccc2F)CC1` [Example 78, Methyl 2-((4-(2,5-difluorobenzylidene)piperidine-1-carboxamido)methyl)benzoate] here?
Answer: Its inhibition at 0.1 µM is 48.3%.

Question: `COc1ccc(CN2CCC(NC(=O)N3CCC(=Cc4cc(F)ccc4F)CC3)CC2)cc1Cl` [Example 36, N-(1-(3-chloro-4-methoxybenzyl)piperidin-4-yl)-4-(2,5-difluorobenzylidene)piperidine-1-carboxamide] was tested. Which inhibition at 0.1 µM did it give?
Answer: Its inhibition at 0.1 µM is 58.3%.

Question: Which inhibition at 0.1 µM does the source give for `O=C(NC1CCN(C(=O)c2cscn2)CC1)N1CCC(=Cc2cc(F)ccc2F)CC1` [Example 59, 4-(2,5-difluorobenzylidene)-N-(1-(thiazole-4-carbonyl)piperidin-4-yl)piperidine-1-carboxamide] here?
Answer: Its inhibition at 0.1 µM is 76.8%.

Question: How did the inhibition at 0.1 µM turn out when `Cc1nccn1Cc1cnc(NC(=O)N2CCC(=Cc3cc(F)ccc3F)CC2)s1` [Example 82, 4-(2,5-difluorobenzylidene)-N-(5-((2-methyl-1H-imidazol-1-yl)methyl)thiazol-2-yl)piperidine-1-carboxamide] was run?
Answer: Its inhibition at 0.1 µM is 82.7%.

Question: For `O=C(Nc1nc2ccc(-c3cncnc3)cc2s1)N1CCC(=Cc2ccccn2)CC1` [Example 6, N-(6-(pyrimidin-5-yl)-benzo[d]thiazol-2-yl)-4-(pyridin-2-ylmethylene)-piperidine-1-carboxamide], which inhibition at 0.1 µM is on record?
Answer: Its inhibition at 0.1 µM is 78.8%.

Question: For `O=C(NC1CCN(C(=O)c2cccc(F)n2)CC1)N1CCC(=Cc2cc(F)ccc2F)CC1` [Example 66, 4-(2,5-difluorobenzylidene)-N-(1-(6-fluoropicolinoyl)piperidin-4-yl)piperidine-1-carboxamide], which inhibition at 0.1 µM is on record?
Answer: Its inhibition at 0.1 µM is 68.6%.

Question: With `O=C(Nc1nccs1)N1CCC(NC(=O)N2CCC(=Cc3cc(F)ccc3F)CC2)CC1` [Example 65, 4-(2,5-difluorobenzylidene)-N-(1-(thiazol-2-ylcarbamoyl)piperidin-4-yl)piperidine-1-carboxamide] as the compound, how does the inhibition at 0.1 µM read?
Answer: The inhibition at 0.1 µM was 55.4%.

Question: How did the inhibition at 0.1 µM turn out when `O=C(NC1CCN(C(=O)C2CC2)CC1)N1CCC(=Cc2cc(F)ccc2F)CC1` [Example 45, N-(1-(cyclopropanecarbonyl)piperidin-4-yl)-4-(2,5-difluorobenzylidene)piperidine-1-carboxamide] was run?
Answer: The inhibition at 0.1 µM was 48.8%.
